Test results from PubChem BioAssay AID463074 (Broad Institute, 2010).
The source made the active and inactive calls.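 The calls were made as follows: active = AC50 no more than tenfold above the top dose tested, or full inhibition at every dose with a flat fit (cut at about 19 µM in these data); inconclusive = flat curve fit with inhibition between 30% and 70%, or poor fit; inactive = AC50 more than tenfold above the top dose tested.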

Tested on: HMLE_sh_eGFP viability, CellTiter-Glo luminescence, 72 h
Assay: viability loss of HMLE_sh_eGFP cells – cell-based, luminescence, counter-screen for HMLE_sh_ECad selective toxicity project, dose response (AID 463074);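 also: counterscreen control line to flag general toxicity for the HMLE_sh_ECad screen; potency for loss of viability as luminescence drops below DMSO wells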

Row | SMILES | AC50
1 | Cc1c(O)cccc1C(=O)N[C@@H](CSc1ccccc1)[C@H](O)CN1C[C@H]2CCCC[C@H]2C[C@H]1C(=O)NC(C)(C)C | 7.33 µM
2 | CCCCCCSc1cc(-c2nc3cc(C)ccn3c2NCCCC)ccc1OC | 8.88 µM
3 | c1ccc(NNC2=NCCCCC2)cc1 | 2.89 µM
4 | O=c1cc(N2CCCCC2)c(-c2ccccc2)nn1Cc1cccc(F)c1 | 5.13 µM
5 | CN(C)CCOc1ccc(C(C)(C)c2ccccc2)cc1 | 5.19 µM
6 | Cc1ccc(S(=O)(=O)N2[C@@H](c3ccc(C(C)(C)C)cc3)C(C(=O)O)=CC[C@H]2c2cccc(Cl)c2)cc1 | 4.26 µM
7 | CCCc1cc(-c2nc(-c3ccc(C)cc3)cs2)ccn1 | 5.16 µM
8 | CCCSc1nsc(NC(=O)Nc2ccc(F)cc2F)n1 | 4.87 µM
9 | Cn1c(-c2ccccc2)cnc1NCc1ccc(-c2ccccc2)cc1 | 0.683 µM
10 | COC(=O)c1c(NC(=O)COc2ccc(Cl)cc2Cl)sc2c1CC(C)(C)NC2(C)C | 6.62 µM
11 | COc1ccccc1C1=NOC(COc2ccc3c(C)cc(=O)oc3c2)C1 (stereo unspecified) | 0.288 µM
12 | O=c1c2cc(NC(=S)NCCCN3CCC(Cc4ccccc4)CC3)ccc2nc2n1CCCCC2 | 6.21 µM
13 | CCCN1CCc2c(sc(NC(=O)c3ccc(S(=O)(=O)N(C)c4ccccc4)cc3)c2C(=O)NC)C1 | 5.34 µM
14 | COc1ccc(CCN2C(=S)N(C)C(=O)C2CC(=O)Nc2ccc(OC)cc2)cc1 (stereo unspecified) | 17.8 µM
15 | Cc1cccc(N/N=C(\C(N)=O)C2=NC(C)(C)Cc3ccccc32)c1 | 10.9 µM
16 | O=C(CSCc1cccc(Cl)c1)Nc1ccccc1-c1ccccc1 | > 19.5 µM (inactive)
17 | CCCCN=C(NNc1ccc(Br)cc1)C(=O)OCC | 3.99 µM
18 | CN(C)CCNC=C(C(=O)Nc1ccc(Cl)cc1Cl)C(=O)Nc1ccc(Cl)cc1Cl | 9.23 µM
19 | CCN1CCN(Cc2ccc(NC(=O)c3cc(NC(=O)c4cnn(-c5ccccc5)c4N)cc(OC)c3)cc2C(F)(F)F)CC1 | 6.76 µM
20 | COc1ccccc1/C=C1\S/C(=N/NC(=O)c2cccc(Br)c2)NC1=O | 8.09 µM
21 | Cc1cc(-c2ccccc2)nc2cc(C(=O)N(Cc3ccccc3)Cc3ccccc3)nn12 | 10.8 µM
22 | Cc1nc(N2CCCCC2)c2c(C)c(C(=O)Nc3ccccc3C(F)(F)F)sc2n1 | 1.85 µM

Row | SMILES | AC50
23 | Cc1ccc(OC/C(O)=C(\C#N)c2nc3ccccc3s2)cc1 | 6.81 µM
24 | CCCCCc1cc(=O)oc2c(C(CCN(CC)CC)c3cc(OC)c(OC)c(OC)c3)c(OC)cc(OC)c12 (stereo unspecified) | 14.3 µM
25 | N/C(=N\N=C/c1ccc(F)cc1)N/N=C\c1ccc(F)cc1 | 5.13 µM
26 | CN(C)C(=O)/C(C#N)=C\c1cc(Br)c(Sc2ccc(Cl)cc2)o1 | 4.46 µM
27 | CC(=O)n1c2c(c3ccccc31)OC(N)=C(C#N)C2c1cccc(Cl)c1Cl (stereo unspecified) | 4.88 µM
28 | S=c1[nH]nc(-c2ccccc2)n1/N=C/c1ccc(-c2ccccc2Cl)o1 | 5.93 µM
29 | C=CCc1cccc(CNc2nc3ccccc3n2CCC)c1O | 13.5 µM
30 | Cc1cccc(-c2oc3ccccc3c2C#CCCO)c1 | 10.1 µM
31 | COc1ccccc1-c1cn[nH]c1-c1ccc(OCc2ccccc2F)cc1O | 6.88 µM
32 | COCCN(C(=O)C(C)C)c1nnc(-c2ccc(C(C)(C)C)cc2)s1 | 3.06 µM
33 | OCCNc1nc(Nc2ccc(Cl)c(Cl)c2)nc2ccccc12 | 6.96 µM
34 | O=C(NCCC1=CCCCC1)c1coc(=O)c(Br)c1 | 11.7 µM
35 | CCCn1nc([N+](=O)[O-])c(C(C#N)c2nc3ccccc3o2)c(Cl)c1=O (stereo unspecified) | 5.81 µM
36 | CCN(CC)S(=O)(=O)c1ccc(N/N=C/c2cc(OC)ccc2O)nc1 | 3.85 µM
37 | O=C(NC(NC(=S)Nc1ccccc1)C(Cl)(Cl)Cl)c1cccc(Cl)c1 (stereo unspecified) | 5.36 µM
38 | O=C(Oc1ccc(Br)cc1C(=O)/C=C/c1ccccc1F)c1ccco1 | 4.19 µM
39 | CC1(C)C=C2[C@H]3CC[C@@H]4[C@@]5(C)CCC(=O)C(C)(C)[C@@H]5CC[C@@]4(C)[C@]3(C)CC[C@@]2(C(=O)O)CC1 | 3.58 µM
40 | C[C@@H]1O[C@@H](O[C@H]2C[C@@H](O)[C@]3(CO)[C@@H]4C(CC[C@]3(O)C2)[C@@]2(O)CC[C@H](C3COC(=O)C3)[C@@]2(C)C[C@H]4O)[C@H](O)[C@H](O)[C@H]1O (stereo partly specified) | 0.707 µM
41 | CNc1nc(SCc2ccccc2Cl)nc2c1CCCC2 | 8.77 µM
42 | Cc1cc(C)cc(NC(=O)Nc2ccc(-n3ccc(C(F)(F)F)n3)cc2)c1 | 4.95 µM
43 | Cc1cccc(C(=O)Nc2ccc(C(=O)Nc3ccc(O)cc3)cc2)c1 | 5.08 µM
44 | Oc1cccc(-c2nc3c4c(ncn3n2)-c2ccccc2CC42CCCC2)c1 | 1.5 µM

Row | SMILES | AC50
45 | CC(C)N(C(=O)CSc1nc2ccccc2n1-c1ccccc1)C(C)C | 7.62 µM
46 | CC(C)(C)c1ccc(NC(=O)N2CCCN(c3c(Cl)cncc3Cl)CC2)cc1 | 2.85 µM
47 | CC(C)(Sc1ccc(CCN(CCCCC2CCCCC2)C(=O)NC2CCCCC2)cc1)C(=O)O | 5.57 µM
48 | O=C1NC(c2ccc(-c3ccccc3[N+](=O)[O-])o2)C(C(=O)c2ccc(Cl)cc2)C(O)(C(F)(F)F)N1 (stereo unspecified) | 13.8 µM
49 | Cc1ccc(C(=O)NC(=C(Cl)Cl)S(=O)(=O)c2ccccc2)cc1 | 3.22 µM
50 | COc1ccc(C(=O)/C=C2/C(=O)Nc3ccccc32)cc1 | 6.73 µM
51 | CC(C)COc1ccc(-c2nn(-c3ccccc3)cc2/C=C2/SC(=S)N(CC(=O)O)C2=O)cc1 | 4.51 µM
52 | Cc1ccc(C)c(-c2csc(N)c2C(=O)OC(C)C)c1 | 8.52 µM
53 | COc1cc(N=Nc2ccc3ccccc3c2)ccc1O | 6.43 µM
54 | CCOC(=O)c1c(NC(NC(=O)C(C)C)C(Cl)(Cl)Cl)sc2c1CCC2 (stereo unspecified) | 7.47 µM
55 | CC(C)c1cccc(C(C)C)c1OC(=O)[C@H]1OC(c2ccc(Br)cc2)=C[C@@H]1c1ccc(Br)cc1 | 4.64 µM
56 | O=C(Nc1cc(C(F)(F)F)ccc1N1CCCCC1)c1ccc(Br)o1 | 8.32 µM
57 | CN1CCN(C2Cc3ccccc3Sc3cc(C(F)(F)F)ccc32)CC1 (stereo unspecified) | 6.9 µM
58 | CCOC(=O)c1cc(-c2cccs2)nc2c1c(C)nn2-c1ccccn1 | 11.8 µM
59 | COc1ccc(Cn2c3ccc(OC)cc3c3nc4ccccc4nc32)cc1 | 17.8 µM
60 | O=C(c1ccccc1)c1c[nH]c(C(=O)NNc2ccccc2)c1 | 1.53 µM
61 | Cn1c2ccccc2c(=O)c2cc(C#Cc3ccccn3)ccc21 | > 19.5 µM (inactive)
62 | CCOC(=O)c1c(CSc2ccccc2)n(C)c2cc(Br)c(OCC(O)CNC(CO)(CO)CO)cc12 (stereo unspecified) | 1.84 µM
63 | COc1ccc(-n2cc(-c3ccccc3)c3c(N4CCOCC4)ncnc32)cc1 | 6.91 µM
64 | Cc1cc(C)nc(SCc2ccc(C(=O)NNC(=O)Nc3cccc(Cl)c3)cc2)n1 | 3.92 µM
65 | CC(C)OC(=O)C(=O)NNc1ccccc1 | 1.22 µM
66 | Cc1ccc(-n2c(-c3cccs3)nc3ccccc3c2=O)cc1 | 3.36 µM

Row | SMILES | AC50
67 | O=C1C=C(c2cccs2)C[C@H](c2ccccc2)[C@H]1n1nnc([N+](=O)[O-])n1 | 0.274 µM
68 | Cc1cccc2sc(NC(=O)C3c4ccccc4Oc4ccccc43)nc12 | 5.71 µM
69 | O=C(COCc1cc(-c2ccc3c(c2)OCO3)on1)N1CCN(c2cccc(C(F)(F)F)c2)CC1 | 2.69 µM
70 | COC(=O)C1=C(C)N(Cc2ccccc2)C(=NCc2cccc(Cl)c2)N[C@H]1c1cccc(F)c1 | 3.62 µM
71 | CN(C)CCNC(=O)COc1ccc(C23CC4CC(CC(C4)C2)C3)cc1 | 4.09 µM
72 | C=C(C)[C@@H]1CC[C@]2(C(=O)O)CC[C@]3(C)C(CCC4[C@@]5(C)CC[C@H](O)C(C)(C)C5CC[C@]43C)C12 (stereo partly specified) | 5.71 µM
73 | Cc1ccc(F)c(NC(=O)/C(C#N)=C(\O)c2ccc(C(C)(C)C)cc2)c1 | 8.58 µM
74 | OCCCNc1nc(-c2ccccc2)c2cc(Br)ccc2n1 | > 19.5 µM (inactive)
75 | O=C(Nc1ccc(CN2CCOCC2)cc1)c1ccc(-c2ccc(Cl)cc2Cl)o1 | 7.06 µM
76 | O=C(Nc1ccc(Cl)cc1)Nc1ccccc1Sc1ncc([N+](=O)[O-])s1 | 6.81 µM
77 | S=c1[nH]nc(COc2ccccc2)n1/N=C/C(Cl)=C/c1ccccc1 | 3.55 µM
78 | Cc1cc(C(=O)NNc2ccc(F)cc2)no1 | 1.68 µM
79 | O=C(CCN1Cc2ccccc2C1)c1ccc2c(c1)OCCO2 | 15.1 µM
80 | O=c1cc(-c2ccc(O)cc2)oc2ccc3ccccc3c12 | 7.19 µM
81 | Cc1ccc(S(=O)(=O)Nc2ccc(-c3nnc(SCc4ccccc4Cl)o3)cc2)cc1 | 5.7 µM
82 | CCC/C(=C1/c2ccccc2C(=O)N1c1ccccc1)c1ccc2c(c1)OCCO2 | 4.08 µM
83 | Cc1cccc(NC(=O)c2cc(-c3cc(C)cc(C)c3O)n[nH]2)c1 | 4.2 µM
84 | O=C(CCCN1C(=O)/C(=C/c2ccccc2)SC1=S)NCCCn1ccnc1 | > 19.5 µM (inactive)
85 | COC(=O)c1c(-c2ccc(OC)cc2)oc2ccc(-c3cc(OC)c(OC)c(OC)c3)cc12 | 4.97 µM
86 | Cc1cccc(CN2C(=O)[C@@H]3Cc4c([nH]c5ccccc45)C(C)(C)N3C2=O)c1 | 12.3 µM
87 | Oc1ccc(Nc2nc(-c3ccc4ccccc4c3)cs2)cc1 | 7.1 µM
88 | CSc1nc2sc3c(c2c(=O)n1CC(C)C)CC(C)(C)OC3 | < 0.16 µM

Row | SMILES | AC50
89 | COc1cc(/C=C/c2noc(-c3ccccc3O)n2)ccc1OC(C)=O | > 19.5 µM (inactive)
90 | O=C(N/C=N/OCc1ccc(Cl)cc1Cl)NOCc1ncc(C(F)(F)F)cc1Cl | 5.04 µM
91 | CC1(NC(=O)CC(c2ccccc2)(c2ccccc2)c2ccccc2)CCN(CCCc2ccccc2)C1=O (stereo unspecified) | 6.85 µM
92 | Cc1cc(-c2ccccc2)nc(N/N=C/c2ccc(O)cc2O)n1 | 7.96 µM
93 | N#C/C(=C\c1c[nH]c2ccc(Br)cc12)c1ccccn1 | 10.3 µM
94 | C/C(=N/NC(=O)c1ccc(-c2ccccc2)cc1)c1cc(O)cc(O)c1 | 3.85 µM
95 | O=C(Nc1ccc(Nc2ccccc2)cc1)Nc1ccccc1Cl | 3.44 µM
96 | CC(/C=N/NC(=O)c1cc(-c2ccc(C)s2)[nH]n1)=C\c1ccccc1 | 4.35 µM
97 | O=C(c1cccc(S(=O)(=O)N2CCc3ccccc3C2)c1)N1CCN(c2ccc(O)cc2)CC1 | 2.9 µM
98 | COc1ccccc1-c1cc(C(F)(F)F)nc(S(C)(=O)=O)n1 | 6.13 µM
99 | O=C(Nc1ccc(F)cc1)c1nc(S(=O)(=O)Cc2ccccc2)ncc1Cl | 7.15 µM
100 | Oc1ccccc1/C=N/NP(=S)(c1ccccc1)c1ccccc1 | 6.98 µM
101 | CC(=O)Oc1ccc2c(=O)c(-c3nc4ccccc4s3)coc2c1 | 9.34 µM
102 | Cc1ccc2nc(-c3cccc(-c4cccc(Cl)c4)c3)c(NCc3ccccc3)n2c1 | 3.17 µM
103 | O=C(Nc1ccc(Cl)cc1)N1CCCN(c2ccc(C(F)(F)F)cc2[N+](=O)[O-])CC1 | 6.57 µM
104 | O=C1c2ccccc2C2=Nc3ccccc3SC(c3ccc(Cl)cc3)C12 (stereo unspecified) | 10.6 µM
105 | N#CCc1ccc(NC(=O)Nc2cccc(Cl)c2)cc1 | 20 µM
106 | O=C(COc1ccccc1-c1ccccc1)N/N=C/c1ccc2ccccc2c1 | 3.67 µM
